Publication PMC7216583 (Parasites & Vectors, 2020)
Like-named read-outs stand apart in the source and are kept apart here.

Key:
human c-Met = target: human c-Met; design: method as in S-inhibitor catalog; settings: vendor brief description; ref S-inhibitor catalog; cited from earlier work
in vitro = settings: human, Host viability (%) mean
mouse c-Met = target: mouse c-Met; design: method as in S-inhibitor catalog; settings: vendor brief description; ref S-inhibitor catalog; cited from earlier work
[1] = test system: Toxoplasma gondii RH-2F tachyzoites; assay: microbe, parasite or virus in culture; settings: 72 h
cIAP1 = target: cIAP1; design: method as in S-inhibitor catalog; settings: vendor brief description; ref S-inhibitor catalog; cited from earlier work
XIAP = target: XIAP; design: method as in S-inhibitor catalog; settings: vendor brief description; ref S-inhibitor catalog; cited from earlier work
cIAP2 = target: cIAP2; design: method as in S-inhibitor catalog; settings: vendor brief description; ref S-inhibitor catalog; cited from earlier work
BRAFV600E = test system: BRAFV600E; design: method as in S-inhibitor catalog; settings: vendor brief description; ref S-inhibitor catalog; cited from earlier work
wild-type CRAF = test system: wild-type CRAF; design: method as in S-inhibitor catalog; settings: vendor brief description; ref S-inhibitor catalog; cited from earlier work
mutant CETP(C13S) = test system: mutant CETP(C13S); design: method as in S-inhibitor catalog; settings: vendor brief description; ref S-inhibitor catalog; cited from earlier work
GSK-3β = settings: read-out: IC50, GSK-3β; vendor brief description; ref S-inhibitor catalog; cited from earlier work
GSK-3ɑ = settings: read-out: IC50, GSK-3ɑ; vendor brief description; ref S-inhibitor catalog; cited from earlier work
[2] = target: glycogen phosphorylase (GP); design: method as in S-inhibitor catalog; settings: vendor brief description; ref S-inhibitor catalog; cited from earlier work
CHO-hSGLT2 = test system: CHO-hSGLT2; design: method as in S-inhibitor catalog; settings: vendor brief description; ref S-inhibitor catalog; cited from earlier work
CHO-rSGLT2 = test system: CHO-rSGLT2; design: method as in S-inhibitor catalog; settings: vendor brief description; ref S-inhibitor catalog; cited from earlier work
CHO-mSGLT2 = test system: CHO-mSGLT2; design: method as in S-inhibitor catalog; settings: vendor brief description; ref S-inhibitor catalog; cited from earlier work
PDGFRα = test system: PDGFRα; design: method as in S-inhibitor catalog; settings: in PDGFRα over-expressed CHO cells; vendor brief description; ref S-inhibitor catalog; cited from earlier work
ErbB2 = test system: ErbB2; design: method as in S-inhibitor catalog; settings: vendor brief description; ref S-inhibitor catalog; cited from earlier work
ErbB4 = test system: ErbB4; design: method as in S-inhibitor catalog; settings: vendor brief description; ref S-inhibitor catalog; cited from earlier work
ErbB1 = test system: ErbB1; design: method as in S-inhibitor catalog; settings: vendor brief description; ref S-inhibitor catalog; cited from earlier work
rhCETP = test system: rhCETP; design: method as in S-inhibitor catalog; settings: vendor brief description; ref S-inhibitor catalog; cited from earlier work
[3] = target: opioid receptor-like1 (ORL1) receptor; design: method as in S-inhibitor catalog; settings: vendor brief description; ref S-inhibitor catalog; cited from earlier work
γ-secretase [4] = target: γ-secretase; design: method as in S-inhibitor catalog; settings: vendor brief description; ref S-inhibitor catalog; read-out: IC50, cell-based γ-secretase; cited from earlier work
γ-secretase [5] = target: γ-secretase; design: method as in S-inhibitor catalog; settings: vendor brief description; ref S-inhibitor catalog; read-out: IC50, membrane-based γ-secretase; cited from earlier work
INR263K = test system: INR263K; design: method as in S-inhibitor catalog; settings: vendor brief description; ref S-inhibitor catalog; cited from earlier work
integrase (IN) = target: integrase (IN); design: method as in S-inhibitor catalog; settings: vendor brief description; ref S-inhibitor catalog; cited from earlier work
cyclin A/CDK2 = test system: cyclin A/CDK2; design: method as in S-inhibitor catalog; settings: vendor brief description; ref S-inhibitor catalog; cited from earlier work
PI3K/mTOR = test system: PI3K/mTOR; design: method as in S-inhibitor catalog; settings: vendor brief description; ref S-inhibitor catalog; read-out: IC50, dual PI3K/mTOR inhibitor; cited from earlier work
Aurora A = test system: Aurora A; design: method as in S-inhibitor catalog; settings: vendor brief description; ref S-inhibitor catalog; cited from earlier work
Aurora B = test system: Aurora B; design: method as in S-inhibitor catalog; settings: vendor brief description; ref S-inhibitor catalog; cited from earlier work
[6] = test system: Akt phosphorylation on S473; design: method as in S-inhibitor catalog; settings: vendor brief description; ref S-inhibitor catalog; cited from earlier work
[7] = test system: Akt phosphorylation on T308; design: method as in S-inhibitor catalog; settings: vendor brief description; ref S-inhibitor catalog; cited from earlier work
p38α = settings: read-out: IC50, p38α; vendor brief description; ref S-inhibitor catalog; cited from earlier work
CDK9 = test system: CDK9; design: method as in S-inhibitor catalog; settings: vendor brief description; ref S-inhibitor catalog; cited from earlier work
Cdc7 = test system: Cdc7; design: method as in S-inhibitor catalog; settings: vendor brief description; ref S-inhibitor catalog; cited from earlier work
HDAC2 = test system: HDAC2; design: method as in S-inhibitor catalog; settings: vendor brief description; ref S-inhibitor catalog; cited from earlier work
mTOR = test system: mTOR; design: method as in S-inhibitor catalog; settings: vendor brief description; ref S-inhibitor catalog; cited from earlier work
PI3Kβ = test system: PI3Kβ; design: method as in S-inhibitor catalog; settings: vendor brief description; ref S-inhibitor catalog; cited from earlier work
PI3Kα = test system: PI3Kα; design: method as in S-inhibitor catalog; settings: vendor brief description; ref S-inhibitor catalog; cited from earlier work
APPL (γ-secretase) = target: APPL (γ-secretase); design: method as in S-inhibitor catalog; settings: vendor brief description; ref S-inhibitor catalog; cited from earlier work
Notch (γ-secretase) = target: Notch (γ-secretase); design: method as in S-inhibitor catalog; settings: vendor brief description; ref S-inhibitor catalog; cited from earlier work
Mps1 = test system: Mps1; design: method as in S-inhibitor catalog; settings: vendor brief description; ref S-inhibitor catalog; cited from earlier work
[8] = test system: Toxoplasma gondii RH-2F tachyzoites; settings: preliminary screen of compound library; mean
[9] = read-out: Parasite inhibition (%) mean, preliminary screen of compound library, mean
[10] = read-out: Parasite inhibition (%) mean

COc1ccc2c(Oc3ccc(NC(=O)c4c(C)n(CC(C)(C)O)n(-c5ccccc5)c4=O)nc3)ccnc2c1 [AMG458]
Ki (human c-Met): 1.2 nM
viability at 72 h (in vitro): 75.9%
Ki (mouse c-Met): 2 nM
inhibition of growth at 5 µM [1, 9]: 86.6%

CN[C@@H](C)C(=O)N[C@H]1CN(C(=O)CC(C)C)CC[C@H]2CC[C@@H](C(=O)NC(c3ccccc3)c3ccccc3)N2C1=O [AT-406]
Ki (cIAP1): 1.9 nM
Ki (XIAP): 66.4 nM
Ki (cIAP2): 5.1 nM
inhibition of growth at 5 µM [1, 9]: 33.5%

Cc1ccc(NC(=O)c2cccc(C(C)(C)C#N)c2)cc1Nc1ccc2ncn(C)c(=O)c2c1 [AZ628]
IC50 (BRAFV600E): 34 nM
IC50 (wild-type CRAF): 29 nM
inhibition of growth at 5 µM [1, 9]: 0.6%

COc1cc(F)c(C(C)C)cc1-c1ccc(C(F)(F)F)cc1CN1C(=O)O[C@H](c2cc(C(F)(F)F)cc(C(F)(F)F)c2)[C@H]1C [Anacetrapib (MK-0859)]
IC50 (mutant CETP(C13S)): 11.8 nM
inhibition of growth at 5 µM [1, 9]: 22.1%

Nc1nc(NCCNc2ncc(-n3ccnc3)c(-c3ccc(Cl)cc3Cl)n2)ccc1[N+](=O)[O-] [CHIR-98014]
IC50 (GSK-3β): 0.58 nM
IC50 (GSK-3ɑ): 0.65 nM
inhibition of growth at 5 µM [1, 10]: 52.4%

CN(C)C(=O)[C@H](O)[C@H](Cc1ccccc1)NC(=O)c1cc2cc(Cl)ccc2[nH]1 [CP-91149]
IC50 [2]: 130 nM
inhibition of growth at 5 µM [1, 9]: 28.6%

Cc1ccc([C@@H]2O[C@H](CO)[C@@H](O)[C@H](O)[C@H]2O)cc1Cc1ccc(-c2ccc(F)cc2)s1 [Canagliflozin]
IC50 (CHO-hSGLT2): 4.4 nM
IC50 (CHO-rSGLT2): 3.7 nM
IC50 (CHO-mSGLT2): 2 nM
inhibition of growth at 5 µM [1, 9]: 0.5%

CC1(COc2ccc3c(c2)ncn3-c2ccc3cccc(N4CCC(N)CC4)c3n2)COC1 [Crenolanib (CP-868596)]
inhibition of growth at 5 µM [1, 9]: 0.2%

COc1cc2ncnc(Nc3ccc(F)c(Cl)c3)c2cc1NC(=O)/C=C/CN1CCCCC1 [Dacomitinib (PF299804,PF-00299804)]
inhibition of growth at 5 µM [1, 9]: 0.4%

CCC(CC)CC1(C(=O)Nc2ccccc2SC(=O)C(C)C)CCCCC1 [Dalcetrapib (JTT-705)]
IC50 (rhCETP): 200 nM
inhibition of growth at 5 µM [1, 9]: 0.4%

CCc1ccc(OCc2ccccc2C(=O)Nc2ccc3nc(C)cc(N)c3c2)cc1 [JTC-801]
viability at 72 h (in vitro): 16.4%
inhibition of growth at 5 µM [1, 9]: 98.8%
IC50 [3]: 94 nM

C[C@H](NC(=O)[C@@H](O)c1cc(F)cc(F)c1)C(=O)N[C@@H]1C(=O)N(C)c2ccccc2-c2ccccc21 [LY411575]
IC50 (γ-secretase [4]): 0.082 nM
IC50 (γ-secretase [5]): 0.078 nM
inhibition of growth at 5 µM [1, 9]: 0.9%

CCN1C[C@@H](C)n2c(c(O)c3c(=O)n(Cc4ccc(F)c(Cl)c4)nc(C(=O)NC)c32)C1=O [MK-2048]
IC50 (INR263K): 1.5 nM
inhibition of growth at 5 µM [1, 9]: 1%
IC50 (integrase (IN)): 2.6 nM

CNC(=O)c1nn(C)c2c1C(C)(C)Cc1cnc(Nc3ccc(N4CCN(C)CC4)cc3)nc1-2 [Milciclib (PHA-848125)]
IC50 (cyclin A/CDK2): 45 nM
inhibition of growth at 5 µM [1, 9]: 16.4%

COc1ccc(-c2ccc3ncc4c(c3c2)n(-c2ccc(N3CCNCC3)c(C(F)(F)F)c2)c(=O)n4C)cn1 [NVP-BGT226]
IC50 (PI3K/mTOR): 1 nM
inhibition of growth at 5 µM [1, 9]: 6.1%

CC(=O)NCC(=O)N1[C@H]2CC[C@H]1c1cc(Nc3ncc(C(F)(F)F)c(NC4CCC4)n3)ccc12 [PF-03814735]
viability at 72 h (in vitro): 60.3%
IC50 (Aurora A): 0.8 nM
IC50 (Aurora B): 5 nM
inhibition of growth at 5 µM [1, 9]: 80.4%

COc1ccc(-c2cc3c(C)nc(N)nc3n([C@H]3CC[C@H](OCCO)CC3)c2=O)cn1 [PF-04691502]
IC50 [6]: 3.8 nM
IC50 [7]: 7.5 nM
inhibition of growth at 5 µM [1, 9]: 11.5%

CNC(=O)c1ccc(C)c(-n2c(C)cc(OCc3ccc(F)cc3F)c(Br)c2=O)c1 [PH-797804]
IC50 (p38α): 26 nM
inhibition of growth at 5 µM [1, 9]: 1.5%

O=C1NCCc2[nH]c(-c3ccncc3)cc21 [PHA-767491]
inhibition of growth at 5 µM [1, 10]: 2.1%

COc1ccc(-c2nc(N3CCOCC3)c3sc(CN(C)c4ncc(C(=O)NO)cn4)cc3n2)cn1 [PI3K/HDAC Inhibitor I]
viability at 72 h (in vitro): 72.1%
IC50 (HDAC2): 5 nM
inhibition of growth at 5 µM [1, 9]: 78.4%

CCn1nnc2c(N3CCOCC3)nc(-c3ccc(NC(=O)Nc4ccc(C(=O)N5CCN(C)CC5)cc4)cc3)nc21 [PKI-402]
IC50 (mTOR): 3 nM
IC50 (PI3Kα): 2 nM
inhibition of growth at 5 µM [1, 9]: 36.9%

C[C@H](NC(=O)Cc1cc(F)cc(F)c1)C(=O)N[C@@H]1C(=O)N(C)c2ccccc2-c2ccccc21 [YO-01027]
IC50 (APPL (γ-secretase)): 2.6 nM
IC50 (Notch (γ-secretase)): 2.9 nM
inhibition of growth at 5 µM [1, 9]: 1.4%

AZ 3146
IC50 (Mps1): ~35 nM
Parasite inhibition (%) mean [8]: 3.4%
